In BigSolDB 2.1:

CC1=NN(c2ccccc2)C(=O)C1
solubility (mole fraction)
Settings	in 2,4-dimethylphenol	in DMSO	in NMP	in diglyme	in morpholine-4-carbaldehyde	in tetraglyme	in triglyme
298.15 K	0.0188	0.0758	0.0383	0.0205	0.0111	0.0463	0.0153
303.15 K	0.0282	0.122	0.0496	0.0269	0.0146	0.0863	0.022
308.15 K	0.0408	0.201	0.0694	0.0333	0.0176	0.131	0.0311
313.15 K	0.0565	0.298	0.0861	0.0416	0.0217	0.212	0.0457
